From patent US10654837B2, “Sulphamoylaryl derivatives and use thereof as medicaments for the treatment of liver fibrosis” (Janssen Pharmaceutica NV, priority 2017, dated 2020)
pIC50: −log10 of the molar value.

Each compound was assayed against T1, 5HTR2B (Homo sapiens, UniProt P41595) (assay: 5HTR2B antagonist activity, calcium mobilization assay in human Maverick/293 cells (serotonin as agonist)). Conditions: intracellular calcium, emission 525 nm, read-out: Ca assay IC50.
T1 construct: host or cells: human Maverick/293 cells
T1 sequence (P41595 whole entry): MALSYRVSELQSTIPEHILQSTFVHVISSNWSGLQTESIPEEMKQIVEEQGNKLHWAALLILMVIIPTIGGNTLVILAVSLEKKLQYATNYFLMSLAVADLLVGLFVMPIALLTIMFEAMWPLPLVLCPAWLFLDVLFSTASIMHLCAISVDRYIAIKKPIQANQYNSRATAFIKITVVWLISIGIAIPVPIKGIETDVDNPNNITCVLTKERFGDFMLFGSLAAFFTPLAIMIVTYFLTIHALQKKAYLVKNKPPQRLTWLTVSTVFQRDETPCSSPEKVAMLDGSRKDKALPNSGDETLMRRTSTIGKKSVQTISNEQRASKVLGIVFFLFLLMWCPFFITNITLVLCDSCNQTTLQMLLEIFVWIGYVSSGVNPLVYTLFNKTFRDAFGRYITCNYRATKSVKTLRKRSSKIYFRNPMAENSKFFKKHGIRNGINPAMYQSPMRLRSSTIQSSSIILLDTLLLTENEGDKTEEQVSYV
Assay type: cell-based
Method: The 5HTR2B antagonist activity was measured using human Maverick/293 cells in a calcium mobilization assay. The measurement starting with plating human Maverick/293 cells (log phase) onto 96-well black and incubate at 37° C. overnight, Followed by starving cells for 2 h by changing complete medium to DMEM without FBS, removing the medium from the 96-well plate. Loading staining calcium buffer into each well and incubated the plate at 37° C. for 50 min. After removal of staining calcium buffer, diluted antagonist were added into the well, incubate 15 to 30 minutes. Dispense serotonin as the 5HTR2B agonists into each well. Intracellular calcium concentration is recorded for 80 seconds by monitoring an emission at a wavelength of 525 nm with an excitation wavelength of 485 nm. Inhibition efficiency of the cell line was determined following the equation: % Inhibition=100%−(D−B)/(S−B)*100%. (S: The peak value in the presence of agonist serotonin; D: The peak value in the presence of different dilution compound or serotonin; B: The peak value in the presence of calcium HBSS buffer only). […] A dose response curve was fitted using nonlinear regression model with a sigmoidal dose response. The IC50 was automatically produced by GraphPad Prism 5.0.

Row | SMILES | pIC50
1 | COc1ccc(S(=O)(=O)N[C@H]2CCOC2)cc1C(=O)Nc1ncc(F)c(C)n1 [Compound 172, (S)—N-(5-fluoro-4-methylpyrimidin-2-yl)-2-methoxy-5-(N-(tetrahydrofuran-3-yl)sulfamoyl)benzamide] | 7.48
2 | COc1ccc(S(=O)(=O)N[C@H]2CCOC2)cc1C(=O)Nc1ccc(Cl)cc1Cl [Compound 85, (S)—N-(2,4-Dichlorophenyl)-2-methoxy-5-(N-(tetrahydrofuran-3-yl)sulfamoyl) benzamide] | 8.82
3 | COc1ccc(S(=O)(=O)NC2(C)COC2)cc1C(=O)Nc1ccc(F)c(C)c1 [Compound 9, N-(4-Fluoro-3-methylphenyl)-2-methoxy-5-(N-(3-methyloxetan-3-yl)sulfamoyl) benzamide] | 8.66
4 | COc1ccc(S(=O)(=O)N[C@H]2CCNC2)cc1C(=O)Nc1cc(F)ccc1Cl [Compound 186, (S)—N-(2-chloro-5-fluorophenyl)-2-methoxy-5-(N-(pyrrolidin-3-yl)sulfamoyl) benzamide] | 9.52
5 | COc1ccc(S(=O)(=O)N[C@H]2CCNC2)cc1C(=O)Nc1ccc(F)c(C(F)F)c1 [Compound 183, (S)—N-(3-(difluoromethyl)-4-fluorophenyl)-2-methoxy-5-(N-(pyrrolidin-3-yl)sulfamoyl)benzamide] | 9.30
6 | COc1ccc(S(=O)(=O)N[C@H]2CCCOC2)cc1C(=O)Nc1ccc(F)cc1 [Compound 41, (S)—N-(4-Fluorophenyl)-2-methoxy-5-(N-(tetrahydro-2H-pyran-3-yl)sulfamoyl) benzamide] | 9.15
7 | COc1ccc(S(=O)(=O)NC2CCCC2)cc1C(=O)Nc1ccc(F)cc1 [Compound 51, 5-(N-Cyclopentylsulfamoyl)-N-(4-fluorophenyl)-2-methoxybenzamide] | 9.00
8 | COc1ccc(S(=O)(=O)N[C@H]2C[C@H](C)C2)cc1C(=O)Nc1ccc(F)c(C)c1 [Compound 7b, N-(4-Fluoro-3-methylphenyl)-2-methoxy-5-(N-((trans)-3-methylcyclobutyl)sulfamoyl)benzamide] | 8.16
9 | COc1ccc(S(=O)(=O)N[C@H]2CCOC2)cc1C(=O)Nc1cccc(Br)c1 [Compound 124, (S)—N-(3-Bromophenyl)-2-methoxy-5-(N-(tetrahydrofuran-3-yl)sulfamoyl) benzamide] | 8.20
10 | COc1ccc(S(=O)(=O)N[C@H]2C[C@@H](C)C2)cc1C(=O)Nc1ccc(F)c(C)c1 [Compound 7a, N-(4-Fluoro-3-methylphenyl)-2-methoxy-5-(N-((cis)-3-methylcyclobutyl)sulfamoyl)benzamide] | 8.42
11 | COc1ccc(S(=O)(=O)N[C@@H]2CCNC2)cc1C(=O)Nc1ccc(F)cc1 [Compound 180, (R)—N-(4-Fluorophenyl)-2-methoxy-5-(N-(pyrrolidin-3-yl)sulfamoyl)benzamide] | 8.48
12 | COc1ccc(S(=O)(=O)N[C@H]2CCOC2)cc1C(=O)Nc1ccc(F)c(C#N)c1 [Compound 95, (S)—N-(3-Cyano-4-fluorophenyl)-2-methoxy-5-(N-(tetrahydrofuran-3-yl)sulfamoyl)benzamide] | 6.19
13 | COc1ccc(S(=O)(=O)N[C@H]2CCOC2)cc1C(=O)Nc1ccccc1Cl [Compound 127, (S)—N-(2-Chlorophenyl)-2-methoxy-5-(N-(tetrahydrofuran-3-yl)sulfamoyl) benzamide] | 10.00
14 | COc1ccc(S(=O)(=O)N[C@H]2CCOC2)cc1C(=O)Nc1ccccc1C [Compound 163, (S)-2-Methoxy-5-(N-(tetrahydrofuran-3-yl)sulfamoyl)-N-(o-tolyl)benzamide] | 9.05
15 | COc1ccc(S(=O)(=O)NC2(C)COC2)cc1C(=O)Nc1ccccc1Cl [Compound 58, N-(2-Chlorophenyl)-2-methoxy-5-(N-(3-methyloxetan-3-yl)sulfamoyl) benzamide] | 9.70
16 | COc1ccc(S(=O)(=O)N[C@H]2CCOC2)cc1C(=O)Nc1ccc(C#N)c(Cl)c1 [Compound 89, (S)—N-(3-Chloro-4-cyanophenyl)-2-methoxy-5-(N-(tetrahydrofuran-3-yl)sulfamoyl)benzamide] | 5.71
17 | COc1ccc(S(=O)(=O)N[C@H]2CCN(C)C2)cc1C(=O)Nc1ccc(F)c(C)n1 [Compound 176, (S)—N-(5-Fluoro-6-methylpyridin-2-yl)-2-methoxy-5-(N-(1-methylpyrrolidin-3-yl)sulfamoyl)benzamide] | 8.30
18 | COc1ccc(S(=O)(=O)N[C@H]2CCOC2)cc1C(=O)Nc1ccccc1C1CC1 [Compound 151, (S)—N-(2-Cyclopropylphenyl)-2-methoxy-5-(N-(tetrahydrofuran-3-yl)sulfamoyl) benzamide] | 7.41
19 | COc1ccc(S(=O)(=O)N[C@H]2CCOC2)cc1C(=O)Nc1cc(F)ccc1Cl [Compound 70, (S)—N-(2-Chloro-5-fluorophenyl)-2-methoxy-5-(N-(tetrahydrofuran-3-yl)sulfamoyl)benzamide] | 9.52
20 | COc1ccc(S(=O)(=O)N[C@H]2CCOC2)cc1C(=O)Nc1ccc(F)c(C)n1 [Compound 2] | 9.22
21 | COc1ccc(S(=O)(=O)NC2CCCCC2)cc1C(=O)Nc1ccc(F)c(C)n1 [Compound 20, 5-(N-Cyclohexylsulfamoyl)-N-(5-fluoro-6-methylpyridin-2-yl)-2-methoxy benzamide] | 8.36
22 | COc1ccc(S(=O)(=O)N[C@@H](C)CO)cc1C(=O)Nc1ccc(F)c(C)c1 [Compound 10a, (S)—N-(4-Fluoro-3-methylphenyl)-5-(N-(1-hydroxypropan-2-yl)sulfamoyl)-2-methoxybenzamide] | 8.35
23 | COc1ccc(S(=O)(=O)N2CCCC2)cc1C(=O)Nc1ccc(F)c(C)n1 [Compound 30, N-(5-Fluoro-6-methylpyridin-2-yl)-2-methoxy-5-(pyrrolidin-1-ylsulfonyl) benzamide] | 7.62
24 | COc1ccc(S(=O)(=O)N[C@H]2CCOC2)cc1C(=O)Nc1ncc(F)cc1F [Compound 118, (S)—N-(3,5-Difluoropyridin-2-yl)-2-methoxy-5-(N-(tetrahydrofuran-3-yl)sulfamoyl)benzamide] | 8.17
25 | COc1cc(F)c(S(=O)(=O)N[C@H]2CCOC2)cc1C(=O)Nc1ccc(F)c(C)c1 [Compound 201, (S)-4-fluoro-N-(4-fluoro-3-methylphenyl)-2-methoxy-5-(N-(tetrahydrofuran-3-yl)sulfamoyl)benzamide] | 8.07
26 | COc1ccc(S(=O)(=O)NC2CCOCC2)cc1C(=O)Nc1ccc(F)c(C)n1 [Compound 17, N-(5-Fluoro-6-methylpyridin-2-yl)-2-methoxy-5-(N-(tetrahydro-2H-pyran-4-yl)sulfamoyl)benzamide] | 8.14

The remaining lines, values ahead:

Row | pIC50 | SMILES
27 | 9.00 | COc1ccc(S(=O)(=O)N[C@@H]2CC[C@H](O)C2)cc1C(=O)Nc1ccc(F)c(C)c1 (single isomer, unassigned) [Compound 15b, N-(4-Fluoro-3-methylphenyl)-5-(N-((cis)-3-hydroxycyclopentyl)sulfamoyl)-2-methoxybenzamide]
28 | 8.23 | COc1ccc(S(=O)(=O)N[C@H]2C[C@@H](O)C2)cc1C(=O)Nc1ccc(Cl)cc1F [Compound 143b, N-(4-chloro-2-fluorophenyl)-5-(N-((cis)-3-hydroxycyclobutyl)sulfamoyl)-2-methoxybenzamide]
29 | 8.05 | COc1ccc(S(=O)(=O)N[C@H](C)CO)cc1C(=O)Nc1ccc(F)cc1 [Compound 49b, (R)—N-(4-Fluorophenyl)-5-(N-(1-hydroxypropan-2-yl)sulfamoyl)-2-methoxybenzamide]
30 | 8.74 | COc1ccc(S(=O)(=O)N[C@@H](C)C(N)=O)cc1C(=O)Nc1ccc(F)cc1 [Compound 46b, (S)-5-(N-(1-Amino-1-oxopropan-2-yl)sulfamoyl)-N-(4-fluorophenyl)-2-methoxybenzamide]
31 | 6.92 | COc1ccc(S(=O)(=O)NC2CCCC[C@H]2O)cc1C(=O)Nc1ccc(F)c(C)n1 (stereo in doubt) [Compound 28b, N-(5-Fluoro-6-methylpyridin-2-yl)-5-(N-((trans)-2-hydroxycyclohexyl)sulfamoyl)-2-methoxybenzamide]
32 | 7.72 | COc1ccc(S(=O)(=O)NC2CCCC[C@@H]2O)cc1C(=O)Nc1ccc(F)c(C)n1 (stereo in doubt) [Compound 28a, N-(5-Fluoro-6-methylpyridin-2-yl)-5-(N-((trans)-2-hydroxycyclohexyl)sulfamoyl)-2-methoxybenzamide]
33 | 9.15 | COc1ccc(S(=O)(=O)N[C@H]2C[C@H](O)C2)cc1C(=O)Nc1ccc(Cl)cc1F [Compound 143a, N-(4-chloro-2-fluorophenyl)-5-(N-((trans)-3-hydroxycyclobutyl)sulfamoyl)-2-methoxybenzamide]
34 | 10.00 | COc1ccc(S(=O)(=O)N[C@H]2CCC[C@H]2O)cc1C(=O)Nc1ccccc1Cl [Compound 61a, N-(2-Chlorophenyl)-5-(N-((1s,2r)-2-hydroxycyclopentyl)sulfamoyl)-2-methoxy benzamide]
35 | 8.52 | COc1ccc(S(=O)(=O)NC(C)C(F)(F)F)cc1C(=O)Nc1ccc(F)c(C)n1 (single isomer, unassigned) [Compound 29a, (S*)—N-(5-Fluoro-6-methylpyridin-2-yl)-2-methoxy-5-(N-(1,1,1-trifluoropropan-2-yl)sulfamoyl)benzamide]
36 | 8.77 | COc1ccc(S(=O)(=O)N[C@H]2C[C@@H](O)C2)cc1C(=O)Nc1ccc(F)c(C(F)F)n1 [Compound 174b, N-(6-(Difluoromethyl)-5-fluoropyridin-2-yl)-5-(N-((cis)-3-hydroxycyclobutyl)sulfamoyl)-2-methoxybenzamide]
